We go through five molecules from patent US12194036B2 (priority 2022, dated 2025).

The test system of one series is plasma protein. Description: Plasma protein binding. The series is classed as in vitro ADME. To be noted: metabolite vs bupropion.
Series [1] in a line: Pharmacokinetics after administration of the subject combination. To be noted: for AUC0-12 relative to that of bupropion / Cmax relative to peak level of bupropion: metabolite vs bupropion, after the subject combination.
Series [2] in a line: Food effect on pharmacokinetics of the subject combination. To be noted: subject combination administered with food.
Series [3] in a line: Effect of CYP2D6 poor metabolizer status on pharmacokinetics of the tablet (Group 3). To be noted: compared to patients who are not CYP2D6 poor metabolizers.

As for `C[C@H](NC(C)(C)C)[C@@H](O)c1cccc(Cl)c1` [threohydroxybupropion], the “extent of protein binding compared with bupropion” value in the series with plasma protein is “about half that seen with bupropion”. In addition, in series [1], the “AUC0-12 relative to that of bupropion” value is “about 7 times” and the “Cmax relative to peak level of bupropion” value is reported as “about 5 times”.

Consider `CC(NC(C)(C)C)C(=O)c1cccc(Cl)c1` (racemic) [bupropion], for which the mean elimination half-life in series [1] (human, plasma, oral) was found to be 15 h.

Regarding `C[C@H]1NC(C)(C)CO[C@]1(O)c1cccc(Cl)c1` [hydroxybupropion], in series [1], the “AUC0-12 relative to that of bupropion” value is given as “about 19 times” and the “Cmax relative to peak level of bupropion” value is “approximately 14 times”.

On to `COc1ccc2c(c1)[C@]13CCCC[C@@H]1[C@H](C2)N(C)CC3` [dextromethorphan], for which the “AUC0-12 decrease with food” value in series [2] worked out at 14%. Also, the “increase of mean elimination half-life” value in series [1] (8 days of subject combination in extensive metabolizers, compared to dextromethorphan given without bupropion) was “approximately 3 fold”. In series [1] (co-administered with bupropion), the “pharmacokinetics at steady state (linearity)” value was “nonlinear pharmacokinetics”. The “changes in AUC and Cmax at steady state with dose” value is recorded as “less than dose-proportional changes” in series [1] (varying doses of bupropion (75 to 150 mg), co-administered with bupropion) and “greater than dose-proportional changes” in series [1] (varying doses of dextromethorphan (30 to 60 mg), co-administered with bupropion). The “plasma concentrations in CYP2D6 poor metabolizers” value in series [3] is reported as “increases plasma concentrations”.

Regarding `CC(NC(C)(C)C)C(O)c1cccc(Cl)c1` (centres unmarked) [erythrohydroxybupropion], in series [1], the “AUC0-12 relative to that of bupropion” value was “about 1.2 times” and the “Cmax relative to peak level of bupropion” value is reported as “approximately equal to”.
